# According to ChEMBL document CHEMBL4325868, “Design, synthesis and antitubercular activity of 4-alkoxy-triazoloquinolones able to inhibit the M. tuberculosis DNA gyrase” (Eur J Med Chem, 2019):
# Experiments:
# Type in all cases: functional
# [1] = tested on: Mycobacterium tuberculosis; assay: Antitubercular activity against streptomycin resistant Mycobacterium tuberculosis isolate 204 after 7 days by resazurin microtiter assay; settings: isolate 204, 168 h
# [2] = tested on: Mycobacterium tuberculosis; assay: Antitubercular activity against rifampicin resistant Mycobacterium tuberculosis isolate 952 after 7 days by resazurin microtiter assay; settings: isolate 952, 168 h
# [3] = tested on: Mycobacterium tuberculosis; assay: Antitubercular activity against ciprofloxacin resistant Mycobacterium tuberculosis isolate 600 after 7 days by resazurin microtiter assay; settings: isolate 600, 168 h
# [4] = tested on: Mycobacterium tuberculosis; assay: Antitubercular activity against multidrug resistant Mycobacterium tuberculosis isolate 571 after 7 days by resazurin microtiter assay; settings: isolate 571, 168 h
# [5] = tested on: Mycobacterium tuberculosis; assay: Antitubercular activity against ciprofloxacin resistant Mycobacterium tuberculosis isolate 1670 after 7 days by resazurin microtiter assay; settings: isolate 1670, 168 h
# [6] = tested on: Mycobacterium tuberculosis; assay: Antitubercular activity against isoniazid/ethambutol resistant Mycobacterium tuberculosis isolate 368 after 7 days by resazurin microtiter assay; settings: isolate 368, 168 h
# [7] = tested on: Mycobacterium tuberculosis; assay: Antitubercular activity against multidrug resistant Mycobacterium tuberculosis isolate 512 after 7 days by resazurin microtiter assay; settings: isolate 512, 168 h
# [8] = tested on: Mycobacterium tuberculosis; assay: Antitubercular activity against multidrug resistant Mycobacterium tuberculosis isolate 1120 after 7 days by resazurin microtiter assay; settings: isolate 1120, 168 h
# [9] = tested on: Mycobacterium tuberculosis; assay: Antitubercular activity against streptomycin/isoniazid/ethambutol resistant Mycobacterium tuberculosis isolate 1097 after 7 days by resazurin microtiter assay; settings: isolate 1097, 168 h
# [10] = tested on: Mycobacterium tuberculosis; assay: Antitubercular activity against multidrug resistant Mycobacterium tuberculosis isolate 7 after 7 days by resazurin microtiter assay; settings: isolate 7, 168 h
# [11] = tested on: Mycobacterium tuberculosis; assay: Antitubercular activity against isoniazid resistant Mycobacterium tuberculosis isolate 1358 after 7 days by resazurin microtiter assay; settings: isolate 1358, 168 h
# [12] = tested on: Mycobacterium tuberculosis; assay: Antitubercular activity against streptomycin resistant Mycobacterium tuberculosis isolate 157 after 7 days by resazurin microtiter assay; settings: isolate 157, 168 h
# [13] = tested on: Mycobacterium tuberculosis; assay: Antitubercular activity against rifampicin/ethambutol resistant Mycobacterium tuberculosis isolate 1726 after 7 days by resazurin microtiter assay; settings: isolate 1726, 168 h
# [14] = tested on: Mycobacterium tuberculosis; assay: Antitubercular activity against streptomycin resistant Mycobacterium tuberculosis isolate 203 after 7 days by resazurin microtiter assay; settings: isolate 203, 168 h
Compound,MIC [1] [µM],MIC [2] [µM],MIC [3] [µM],MIC [4] [µM],MIC [5] [µM],MIC [6] [µM],MIC [7] [µM],MIC [8] [µM],MIC [9] [µM],MIC [10] [µM],MIC [11] [µM],MIC [12] [µM],MIC [13] [µM],MIC [14] [µM]
COc1cc2c(=O)c(C(=O)O)cn(C)c2c2nnn(C)c12,8,32,16,16,16,8,8,4,32,4,16,8,16,16
O=C(O)c1cn(C2CC2)c2cc(N3CCNCC3)c(F)cc2c1=O [CIPROFLOXACIN],–,–,4,–,16,–,8,–,–,–,–,–,–,–
